{"source": "ChEMBL document CHEMBL4673260", "about": "“Pyridine alkaloids with activity in the central nervous system” (Bioorg Med Chem, 2020)", "key": {"Homo sapiens [1]": {"species": "Homo sapiens", "assay": "Inhibition of N-type calcium channel (unknown origin) at 10 uM relative to control"}, "[2]": {"target": "Cysteinyl leukotriene receptor 1 (Homo sapiens) (UniProt Q9Y271)", "assay": "Inhibition of human CYSLTR1 expressed in CHO-K1 cells at 10 uM relative to control", "type": "cell-based"}, "[3]": {"target": "Leukotriene B4 receptor 1 (Homo sapiens) (UniProt Q15722)", "assay": "Inhibition of human BLT expressed in CHO-K1 cells at 10 uM relative to control", "type": "cell-based"}, "[4]": {"target": "Protein kinase C alpha type (Homo sapiens) (UniProt P17252)", "assay": "Inhibition of human protein kinase Ca at 10 uM relative to control"}, "Homo sapiens [5]": {"species": "Homo sapiens", "assay": "Inhibition of Glutamate receptor ionotropic AMPA site (unknown origin) at 10 uM relative to control"}, "Homo sapiens [6]": {"species": "Homo sapiens", "assay": "Inhibition of Glutamate receptor ionotropic NMDA phencyclidine site (unknown origin) at 10 uM relative to control"}, "[7]": {"target": "Sigma intracellular receptor 2 (Homo sapiens) (UniProt Q5BJF2)", "sequence (Q5BJF2 whole entry)": "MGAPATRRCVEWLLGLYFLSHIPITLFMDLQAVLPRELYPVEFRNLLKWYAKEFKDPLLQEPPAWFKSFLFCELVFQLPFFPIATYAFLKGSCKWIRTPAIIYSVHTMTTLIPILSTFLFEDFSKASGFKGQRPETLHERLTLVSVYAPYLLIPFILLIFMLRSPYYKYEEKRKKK", "assay": "Inhibition of sigma 2 receptor (unknown origin) at 10 uM relative to control"}, "[8]": {"target": "Adenosine receptor A2a (Homo sapiens) (UniProt P29274)", "sequence (P29274 whole entry)": "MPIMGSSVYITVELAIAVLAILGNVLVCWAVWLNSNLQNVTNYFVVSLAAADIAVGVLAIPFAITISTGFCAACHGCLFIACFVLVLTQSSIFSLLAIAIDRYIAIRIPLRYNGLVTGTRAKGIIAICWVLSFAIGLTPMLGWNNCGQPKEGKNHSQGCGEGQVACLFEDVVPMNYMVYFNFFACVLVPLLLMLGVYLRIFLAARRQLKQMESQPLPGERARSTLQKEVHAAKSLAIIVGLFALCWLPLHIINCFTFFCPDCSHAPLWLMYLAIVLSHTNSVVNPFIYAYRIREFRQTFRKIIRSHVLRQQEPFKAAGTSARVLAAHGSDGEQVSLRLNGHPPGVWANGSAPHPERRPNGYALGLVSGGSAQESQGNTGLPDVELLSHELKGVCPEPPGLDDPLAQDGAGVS", "assay": "Inhibition of human adenosine receptor A2A expressed in HEK293 cells at 10 uM relative to control", "type": "cell-based"}, "Homo sapiens [9]": {"species": "Homo sapiens", "assay": "Inhibition of human adenosine transporter at 10 uM relative to control"}, "[10]": {"target": "Mu-type opioid receptor (Homo sapiens) (UniProt P35372)", "assay": "Inhibition of human Mu-type opioid receptor at 10 uM relative to control"}, "[11]": {"target": "Gamma-aminobutyric acid receptor subunit alpha-1 (Homo sapiens) (UniProt P14867)", "sequence (P14867 whole entry)": "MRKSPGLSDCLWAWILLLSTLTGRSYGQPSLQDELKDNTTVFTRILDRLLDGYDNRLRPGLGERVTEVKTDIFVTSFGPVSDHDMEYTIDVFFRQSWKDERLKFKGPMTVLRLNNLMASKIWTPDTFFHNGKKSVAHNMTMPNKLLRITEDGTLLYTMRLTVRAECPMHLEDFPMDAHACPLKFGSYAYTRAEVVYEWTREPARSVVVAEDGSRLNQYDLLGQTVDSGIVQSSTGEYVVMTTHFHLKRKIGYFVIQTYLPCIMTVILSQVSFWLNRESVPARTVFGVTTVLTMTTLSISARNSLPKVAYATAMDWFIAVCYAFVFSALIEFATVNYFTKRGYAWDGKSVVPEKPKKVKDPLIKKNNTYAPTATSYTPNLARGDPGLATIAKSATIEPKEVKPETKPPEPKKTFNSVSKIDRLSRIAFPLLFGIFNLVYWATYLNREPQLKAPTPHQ", "assay": "Inhibition of GABA-A alpha1 BDZ site (unknown origin) at 10 uM relative to control"}, "[12]": {"target": "Substance-P receptor (Homo sapiens) (UniProt P25103)", "assay": "Inhibition of human NK1 at 10 uM relative to control"}, "Homo sapiens [13]": {"species": "Homo sapiens", "assay": "Inhibition of Glutamate receptor ionotropic NMDA glycine,strychnine-sensitive site (unknown origin) at 10 uM relative to control"}, "Homo sapiens [14]": {"species": "Homo sapiens", "assay": "Inhibition of Calcium-activated potassium channel channel (unknown origin)", "settings": "concentration not given here"}, "[15]": {"target": "B2 bradykinin receptor (Homo sapiens) (UniProt P30411)", "assay": "Inhibition of BKR2 (unknown origin) at 10 uM relative to control"}, "Homo sapiens [16]": {"species": "Homo sapiens", "assay": "Inhibition of sodium channel site2 (unknown origin) at 10 uM relative to control"}, "[17]": {"target": "Muscarinic acetylcholine receptor M3 (Homo sapiens, UniProt P20309)", "assay": "Inhibition of human muscarinic M3 receptor expressed in CHO-K1 cells at 10 uM relative to control", "type": "cell-based"}, "[18]": {"target": "D(2) dopamine receptor (Homo sapiens) (UniProt P14416)", "assay": "Inhibition of human dopamine D2S receptor expressed in CHO-K1 cells at 10 uM relative to control", "type": "cell-based"}, "[19]": {"target": "T1, 5-hydroxytryptamine receptor 2A (Homo sapiens, UniProt P28223)", "T1 sequence (P28223 whole entry)": "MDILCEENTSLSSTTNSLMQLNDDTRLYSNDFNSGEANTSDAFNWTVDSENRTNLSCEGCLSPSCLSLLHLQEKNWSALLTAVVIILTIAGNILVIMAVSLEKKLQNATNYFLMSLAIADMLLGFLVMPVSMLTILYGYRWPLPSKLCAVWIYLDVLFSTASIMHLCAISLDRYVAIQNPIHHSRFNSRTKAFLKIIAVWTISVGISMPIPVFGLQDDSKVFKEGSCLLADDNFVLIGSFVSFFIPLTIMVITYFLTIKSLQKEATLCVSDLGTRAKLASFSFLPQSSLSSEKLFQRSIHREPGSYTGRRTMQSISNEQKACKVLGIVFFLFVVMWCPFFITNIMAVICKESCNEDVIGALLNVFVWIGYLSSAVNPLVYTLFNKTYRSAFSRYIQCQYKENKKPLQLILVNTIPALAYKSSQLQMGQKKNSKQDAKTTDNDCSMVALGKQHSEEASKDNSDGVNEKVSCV", "assay": "Inhibition of human 5HT-2A receptor expressed in CHO-K1 cells at 10 uM relative to control", "type": "cell-based"}, "[20]": {"target": "Thromboxane A2 receptor (Homo sapiens) (UniProt P21731)", "assay": "Inhibition of human Thromboxane A2 at 10 uM relative to control"}, "Homo sapiens [21]": {"species": "Homo sapiens", "assay": "Inhibition of nAChR (unknown origin) at 10 uM relative to control"}, "Homo sapiens [22]": {"species": "Homo sapiens", "assay": "Inhibition of NOS (unknown origin) at 10 uM relative to control"}, "Homo sapiens [23]": {"species": "Homo sapiens", "assay": "Inhibition of GABA-A agonist site (unknown origin) at 10 uM relative to control"}, "Homo sapiens [24]": {"species": "Homo sapiens", "assay": "Inhibition of human 5HT-6 receptor at 10 uM relative to control"}, "[25]": {"target": "5-hydroxytryptamine receptor 7 (Homo sapiens) (UniProt P34969)", "assay": "Inhibition of human 5HT-7 receptor at 10 uM relative to control"}, "[26]": {"target": "5-hydroxytryptamine receptor 1D (Homo sapiens) (UniProt P28221)", "assay": "Inhibition of 5HT-1D receptor (unknown origin) at 10 uM relative to control"}, "[27]": {"target": "Muscarinic acetylcholine receptor M4 (Homo sapiens) (UniProt P08173)", "sequence (P08173 whole entry)": "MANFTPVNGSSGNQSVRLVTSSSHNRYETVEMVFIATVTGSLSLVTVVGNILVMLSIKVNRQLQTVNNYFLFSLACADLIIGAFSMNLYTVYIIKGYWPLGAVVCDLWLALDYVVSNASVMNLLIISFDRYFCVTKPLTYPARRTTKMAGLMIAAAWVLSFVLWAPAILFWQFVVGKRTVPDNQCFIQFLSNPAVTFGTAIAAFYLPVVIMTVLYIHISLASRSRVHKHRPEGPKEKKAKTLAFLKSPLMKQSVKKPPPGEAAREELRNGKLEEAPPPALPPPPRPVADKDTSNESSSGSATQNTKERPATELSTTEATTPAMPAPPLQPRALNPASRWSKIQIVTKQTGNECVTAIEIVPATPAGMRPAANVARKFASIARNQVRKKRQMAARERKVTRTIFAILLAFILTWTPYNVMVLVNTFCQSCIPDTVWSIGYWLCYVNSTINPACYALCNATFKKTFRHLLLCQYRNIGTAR", "assay": "Inhibition of human muscarinic M4 receptor expressed in CHO-K1 cells at 10 uM relative to control", "type": "cell-based"}, "[28]": {"assay": "Half life in human", "type": "ADME"}, "[29]": {"target": "Endothelin-1 receptor (Homo sapiens) (UniProt P25101)", "assay": "Inhibition of human ET-A at 10 uM relative to control"}, "[30]": {"target": "Sodium-dependent serotonin transporter (Homo sapiens) (UniProt P31645)", "assay": "Inhibition of human serotonin transporter expressed in HEK293 cells at 10 uM relative to control", "type": "cell-based"}, "[31]": {"target": "T2, Neuronal acetylcholine receptor; alpha4/beta2 (Rattus norvegicus, UniProt P09483+P12390)", "T2 sequence (P09483 whole entry)": "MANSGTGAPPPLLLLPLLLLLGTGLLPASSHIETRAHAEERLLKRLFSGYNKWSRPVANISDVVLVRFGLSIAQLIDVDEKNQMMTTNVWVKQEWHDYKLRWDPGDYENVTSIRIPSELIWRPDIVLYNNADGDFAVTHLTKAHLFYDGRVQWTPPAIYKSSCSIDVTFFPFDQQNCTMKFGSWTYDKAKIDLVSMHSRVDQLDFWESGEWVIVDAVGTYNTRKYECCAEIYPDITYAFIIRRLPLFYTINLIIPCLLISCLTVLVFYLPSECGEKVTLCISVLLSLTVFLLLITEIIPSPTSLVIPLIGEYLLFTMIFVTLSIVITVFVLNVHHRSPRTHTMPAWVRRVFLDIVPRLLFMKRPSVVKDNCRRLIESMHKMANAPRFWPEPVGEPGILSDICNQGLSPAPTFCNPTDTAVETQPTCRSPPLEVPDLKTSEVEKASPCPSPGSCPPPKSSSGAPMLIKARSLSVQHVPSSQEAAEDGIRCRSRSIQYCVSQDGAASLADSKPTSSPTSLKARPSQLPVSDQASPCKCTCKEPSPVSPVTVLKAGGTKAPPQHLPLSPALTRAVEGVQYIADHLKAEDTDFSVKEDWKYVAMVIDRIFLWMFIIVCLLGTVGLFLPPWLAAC", "T2 sequence (P12390 whole entry)": "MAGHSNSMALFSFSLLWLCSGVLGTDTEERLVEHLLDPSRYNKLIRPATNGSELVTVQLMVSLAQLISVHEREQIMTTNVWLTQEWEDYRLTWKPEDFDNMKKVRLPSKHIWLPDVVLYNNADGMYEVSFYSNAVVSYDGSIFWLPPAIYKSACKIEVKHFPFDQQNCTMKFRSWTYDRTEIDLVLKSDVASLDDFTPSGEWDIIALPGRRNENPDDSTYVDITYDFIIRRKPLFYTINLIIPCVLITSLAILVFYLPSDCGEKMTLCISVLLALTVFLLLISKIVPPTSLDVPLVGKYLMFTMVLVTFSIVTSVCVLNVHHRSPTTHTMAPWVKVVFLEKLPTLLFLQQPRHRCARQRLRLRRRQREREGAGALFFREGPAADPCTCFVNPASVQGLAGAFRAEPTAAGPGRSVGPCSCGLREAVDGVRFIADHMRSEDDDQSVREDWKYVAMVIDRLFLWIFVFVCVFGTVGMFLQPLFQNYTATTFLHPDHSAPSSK", "assay": "Displacement of [3H]epibatidine from alpha4beta2 nAChR in rat frontal cortex membrane by scintillation counting method", "type": "cell membranes"}, "Acetylcholinesterase": {"target": "Acetylcholinesterase (Homo sapiens, UniProt P22303)", "assay": "Inhibition of acetylcholinesterase (unknown origin) at 10 uM relative to control"}, "[32]": {"target": "Gamma-aminobutyric acid type B receptor subunit 1 (Homo sapiens) (UniProt Q9UBS5)", "sequence (Q9UBS5 whole entry)": "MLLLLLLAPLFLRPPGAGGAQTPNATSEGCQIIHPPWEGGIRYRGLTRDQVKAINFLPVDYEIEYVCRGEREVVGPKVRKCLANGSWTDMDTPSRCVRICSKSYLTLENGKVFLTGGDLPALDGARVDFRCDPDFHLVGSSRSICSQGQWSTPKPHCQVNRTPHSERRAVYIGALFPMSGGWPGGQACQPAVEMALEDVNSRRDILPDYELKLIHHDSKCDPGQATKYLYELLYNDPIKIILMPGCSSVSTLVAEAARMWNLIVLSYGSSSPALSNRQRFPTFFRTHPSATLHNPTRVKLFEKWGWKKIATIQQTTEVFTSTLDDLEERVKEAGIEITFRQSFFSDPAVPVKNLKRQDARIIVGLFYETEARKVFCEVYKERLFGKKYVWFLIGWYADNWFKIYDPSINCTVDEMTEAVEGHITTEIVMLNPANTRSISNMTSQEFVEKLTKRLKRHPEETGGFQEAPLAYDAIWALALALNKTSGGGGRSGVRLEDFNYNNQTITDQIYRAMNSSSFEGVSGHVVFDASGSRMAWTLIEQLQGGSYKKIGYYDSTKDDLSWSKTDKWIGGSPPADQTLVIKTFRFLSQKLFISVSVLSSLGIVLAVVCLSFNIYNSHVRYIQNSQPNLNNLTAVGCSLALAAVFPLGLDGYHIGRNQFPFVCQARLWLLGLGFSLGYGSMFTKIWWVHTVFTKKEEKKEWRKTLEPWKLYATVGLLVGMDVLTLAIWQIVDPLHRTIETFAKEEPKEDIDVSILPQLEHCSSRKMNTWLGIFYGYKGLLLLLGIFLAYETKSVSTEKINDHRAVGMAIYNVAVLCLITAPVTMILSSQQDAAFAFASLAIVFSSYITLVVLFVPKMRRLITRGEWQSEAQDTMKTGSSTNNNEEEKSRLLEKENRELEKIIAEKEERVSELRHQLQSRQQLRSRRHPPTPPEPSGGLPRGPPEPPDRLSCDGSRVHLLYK", "assay": "Inhibition of human GABA-B1 at 10 uM relative to control"}, "D(3) dopamine receptor": {"target": "D(3) dopamine receptor (Homo sapiens, UniProt P35462)", "assay": "Inhibition of human dopamine D3 receptor expressed in CHO-K1 cells at 10 uM relative to control", "type": "cell-based"}, "[33]": {"target": "T2, Neuronal acetylcholine receptor; alpha4/beta2", "description": "Agonist activity at alpha4beta2 nAChR in rat frontal cortex membrane"}, "Homo sapiens [34]": {"species": "Homo sapiens", "assay": "Inhibition of GABA receptor chloride/TBOB site (unknown origin) at 10 uM relative to control"}, "[35]": {"target": "5-hydroxytryptamine receptor 1A (Homo sapiens) (UniProt P08908)", "assay": "Inhibition of human 5HT-1a receptor at 10 uM relative to control"}, "[36]": {"target": "5-hydroxytryptamine receptor 2C (Homo sapiens) (UniProt P28335)", "assay": "Inhibition of human 5HT-2C receptor at 10 uM relative to control"}, "[37]": {"target": "cGMP-specific 3',5'-cyclic phosphodiesterase (Homo sapiens) (UniProt O76074)", "assay": "Inhibition of human PDE5A1 at 10 uM relative to control"}, "[38]": {"target": "Muscarinic acetylcholine receptor M2 (Homo sapiens) (UniProt P08172)", "sequence (P08172 whole entry)": "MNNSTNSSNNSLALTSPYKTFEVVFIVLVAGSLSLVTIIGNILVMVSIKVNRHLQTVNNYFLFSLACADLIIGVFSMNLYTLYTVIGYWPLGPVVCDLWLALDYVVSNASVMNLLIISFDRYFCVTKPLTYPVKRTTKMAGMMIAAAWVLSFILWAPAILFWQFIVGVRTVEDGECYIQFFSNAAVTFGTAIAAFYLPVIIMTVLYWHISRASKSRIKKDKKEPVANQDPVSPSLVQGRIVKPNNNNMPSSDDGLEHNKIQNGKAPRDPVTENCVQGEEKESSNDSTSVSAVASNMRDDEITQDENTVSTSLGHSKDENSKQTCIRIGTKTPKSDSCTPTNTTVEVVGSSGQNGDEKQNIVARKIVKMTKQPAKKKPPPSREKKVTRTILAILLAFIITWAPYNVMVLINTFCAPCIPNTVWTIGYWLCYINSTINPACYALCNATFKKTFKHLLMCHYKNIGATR", "assay": "Inhibition of human muscarinic M2 receptor expressed in CHO-K1 cells at 10 uM relative to control", "type": "cell-based"}, "Homo sapiens [39]": {"species": "Homo sapiens", "assay": "Inhibition of human delta 2-type opioid receptor at 10 uM relative to control"}, "[40]": {"target": "Alpha-2A adrenergic receptor (Homo sapiens) (UniProt P08913)", "assay": "Inhibition of human adrenergic receptor alpha2A expressed in CHO-K1 cells at 10 uM relative to control", "type": "cell-based"}, "[41]": {"target": "D(4) dopamine receptor (Homo sapiens) (UniProt P21917)", "sequence (P21917 whole entry)": "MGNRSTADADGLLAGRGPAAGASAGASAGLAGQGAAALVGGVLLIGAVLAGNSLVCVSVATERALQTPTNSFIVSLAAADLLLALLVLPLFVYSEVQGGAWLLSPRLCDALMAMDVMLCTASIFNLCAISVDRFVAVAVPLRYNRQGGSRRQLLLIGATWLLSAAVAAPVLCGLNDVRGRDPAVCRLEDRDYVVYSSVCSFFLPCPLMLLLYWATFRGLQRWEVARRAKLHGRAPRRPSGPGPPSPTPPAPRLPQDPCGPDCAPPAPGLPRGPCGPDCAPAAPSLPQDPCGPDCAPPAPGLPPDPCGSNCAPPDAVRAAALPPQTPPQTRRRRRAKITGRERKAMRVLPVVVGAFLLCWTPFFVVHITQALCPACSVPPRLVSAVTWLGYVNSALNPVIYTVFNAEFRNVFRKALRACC", "assay": "Inhibition of human dopamine D4.4 receptor expressed in CHO-K1 cells at 10 uM relative to control", "type": "cell-based"}, "[42]": {"target": "T1, 5-hydroxytryptamine receptor 2A", "assay": "Inhibition of human 5HT-2A receptor at 10 uM relative to control"}}}
{"smiles": "CN1C(=O)CC[C@H]1c1cccnc1", "note": "[COTININE]", "values": [{"measurement": "inhibition", "setting": "Homo sapiens [1]", "value": "< 50", "unit": "%"}, {"measurement": "inhibition", "setting": "[2]", "value": "< 50", "unit": "%"}, {"measurement": "inhibition", "setting": "[3]", "value": "< 50", "unit": "%"}, {"measurement": "inhibition", "setting": "[4]", "value": "< 50", "unit": "%"}, {"measurement": "inhibition", "setting": "Homo sapiens [5]", "value": "< 50", "unit": "%"}, {"measurement": "inhibition", "setting": "Homo sapiens [6]", "value": "< 50", "unit": "%"}, {"measurement": "inhibition", "setting": "[7]", "value": "< 50", "unit": "%"}, {"measurement": "inhibition", "setting": "[8]", "value": "< 50", "unit": "%"}, {"measurement": "inhibition", "setting": "Homo sapiens [9]", "value": "< 50", "unit": "%"}, {"measurement": "inhibition", "setting": "[10]", "value": "< 50", "unit": "%"}, {"measurement": "inhibition", "setting": "[11]", "value": "< 50", "unit": "%"}, {"measurement": "inhibition", "setting": "[12]", "value": "< 50", "unit": "%"}, {"measurement": "inhibition", "setting": "Homo sapiens [13]", "value": "< 50", "unit": "%"}, {"measurement": "inhibition", "setting": "Homo sapiens [14]", "value": "< 50", "unit": "%"}, {"measurement": "inhibition", "setting": "[15]", "value": "< 50", "unit": "%"}, {"measurement": "inhibition", "setting": "Homo sapiens [16]", "value": "< 50", "unit": "%"}, {"measurement": "inhibition", "setting": "[17]", "value": "< 50", "unit": "%"}, {"measurement": "inhibition", "setting": "[18]", "value": "< 50", "unit": "%"}, {"measurement": "inhibition", "setting": "[19]", "value": "< 50", "unit": "%"}, {"measurement": "inhibition", "setting": "[20]", "value": "< 50", "unit": "%"}, {"measurement": "inhibition", "setting": "Homo sapiens [21]", "value": "< 50", "unit": "%"}, {"measurement": "inhibition", "setting": "Homo sapiens [22]", "value": "< 50", "unit": "%"}, {"measurement": "inhibition", "setting": "Homo sapiens [23]", "value": "< 50", "unit": "%"}, {"measurement": "inhibition", "setting": "Homo sapiens [24]", "value": "< 50", "unit": "%"}, {"measurement": "inhibition", "setting": "[25]", "value": "< 50", "unit": "%"}, {"measurement": "inhibition", "setting": "[26]", "value": "< 50", "unit": "%"}, {"measurement": "inhibition", "setting": "[27]", "value": "< 50", "unit": "%"}, {"measurement": "half-life", "setting": "[28]", "value": 1140, "unit": "min"}, {"measurement": "inhibition", "setting": "[29]", "value": "< 50", "unit": "%"}, {"measurement": "inhibition", "setting": "[30]", "value": "< 50", "unit": "%"}, {"measurement": "Ki", "setting": "[31]", "value": 3, "unit": "µM"}, {"measurement": "inhibition", "setting": "Acetylcholinesterase", "value": "< 50", "unit": "%"}, {"measurement": "inhibition", "setting": "[32]", "value": "< 50", "unit": "%"}, {"measurement": "inhibition", "setting": "D(3) dopamine receptor", "value": "< 50", "unit": "%"}, {"measurement": "EC50", "setting": "[33]", "value": 21, "unit": "µM"}, {"measurement": "inhibition", "setting": "Homo sapiens [34]", "value": "< 50", "unit": "%"}, {"measurement": "inhibition", "setting": "[35]", "value": "< 50", "unit": "%"}, {"measurement": "inhibition", "setting": "[36]", "value": "< 50", "unit": "%"}, {"measurement": "inhibition", "setting": "[37]", "value": "< 50", "unit": "%"}, {"measurement": "inhibition", "setting": "[38]", "value": "< 50", "unit": "%"}, {"measurement": "inhibition", "setting": "Homo sapiens [39]", "value": "< 50", "unit": "%"}, {"measurement": "inhibition", "setting": "[40]", "value": "< 50", "unit": "%"}, {"measurement": "inhibition", "setting": "[41]", "value": "< 50", "unit": "%"}, {"measurement": "inhibition", "setting": "[42]", "value": "< 50", "unit": "%"}]}
